Data as given in PubChem BioAssay AID330 (DTP/NCI, 2004).
Several values for one entry are separate records, joined by “and”; a condition that tells them apart may be missing. Equal entries are not always repeated. Toxic doses and inconclusive results are not listed. How the source made its calls: active means survival T/C of 150% or more; inactive means T/C below 125% in these data.

System: P388 leukemia ip, CD2F1 mice, survival T/C
Test: NCI In Vivo Anticancer Drug Screen. Data for tumor model P388 Leukemia (intraperitoneal) in CD2F1 (CDF1) mice
Details: endpoint: median survival time, higher = longer survival
In short: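 Mice carrying the transplanted tumor received test compound or vehicle. Survival was recorded in each group, and the value is the treated-group measurement divided by that of the vehicle-treated control group.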

[1] = dose: 50.0 mg/kg/injection, schedule: Q01DX009 (ip), vehicle: saline
[2] = dose: 100.0 mg/kg/injection, schedule: Q01DX009 (ip), vehicle: saline
[3] = dose: 400.0 mg/kg/injection, schedule: Q04DX003 (ip), vehicle: saline
[4] = dose: 60.0 mg/kg/injection, schedule: Q01DX005 (ip), vehicle: saline with Tween-80
[5] = dose: 120.0 mg/kg/injection, schedule: Q01DX005 (ip), vehicle: saline with Tween-80
[6] = dose: 240.0 mg/kg/injection, schedule: Q01DX005 (ip), vehicle: saline with Tween-80
[7] = dose: 50.0 mg/kg/injection, schedule: Q01DX009 (ip), vehicle: Klucel (hydroxypropylcellulose) (HPC)
[8] = dose: 100.0 mg/kg/injection, schedule: Q01DX009 (ip), vehicle: Klucel (hydroxypropylcellulose) (HPC)
[9] = dose: 200.0 mg/kg/injection, schedule: Q01DX009 (ip), vehicle: Klucel (hydroxypropylcellulose) (HPC)
[10] = dose: 12.5 mg/kg/injection, schedule: Q04DX003 (ip), vehicle: saline
[11] = dose: 25.0 mg/kg/injection, schedule: Q04DX003 (ip), vehicle: saline
[12] = dose: 60.0 mg/kg/injection, schedule: Q01DX005 (ip), vehicle: Klucel (hydroxypropylcellulose) (HPC)
[13] = dose: 120.0 mg/kg/injection, schedule: Q01DX005 (ip), vehicle: Klucel (hydroxypropylcellulose) (HPC)
[14] = dose: 60.0 mg/kg/injection, schedule: Q01DX005 (ip), vehicle: saline
[15] = dose: 120.0 mg/kg/injection, schedule: Q01DX005 (ip), vehicle: saline
[16] = dose: 240.0 mg/kg/injection, schedule: Q01DX005 (ip), vehicle: saline

Measured: T/C

CNC(=O)OCc1cn(-c2ccc(Cl)c(Cl)c2)nc1COC(=O)NC
inactive: dose: 0.05 mg/kg/injection, schedule: Q01DX009 (ip), vehicle: distilled water + Tween-80 103 % of control | dose: 0.1 mg/kg/injection, schedule: Q01DX009 (ip), vehicle: distilled water + Tween-80 86 % of control | dose: 0.2 mg/kg/injection, schedule: Q01DX009 (ip), vehicle: distilled water + Tween-80 94 % of control | dose: 0.4 mg/kg/injection, schedule: Q01DX009 (ip), vehicle: distilled water + Tween-80 99 % of control | dose: 3.12 mg/kg/injection, schedule: Q01DX009 (ip), vehicle: distilled water + Tween-80 88 % of control | dose: 25.0 mg/kg/injection, schedule: Q01DX009 (ip), vehicle: distilled water + Tween-80 89 % of control | dose: 50.0 mg/kg/injection, schedule: Q01DX009 (ip), vehicle: distilled water + Tween-80 92 % of control | dose: 100.0 mg/kg/injection, schedule: Q01DX009 (ip), vehicle: distilled water + Tween-80 90 % of control

CCNCc1c(C)[nH]c2ccc(N(C)C)cc2c1=O
inactive: [1] 92 % of control | [2] 108 % of control

COc1ccc(NCS(=O)(=O)O)cc1
inactive: dose: 100.0 mg/kg/injection, schedule: Q04DX003 (ip), vehicle: saline 100 % of control | dose: 200.0 mg/kg/injection, schedule: Q04DX003 (ip), vehicle: saline 108 % of control | [3] 104 % of control

O=[N+]([O-])c1ccc(N/N=C/CCl)c([N+](=O)[O-])c1
inactive: dose: 11.0 mg/kg/injection, schedule: Q04DX003 (ip), vehicle: Klucel (hydroxypropylcellulose) (HPC) 100 % of control | dose: 11.0 mg/kg/injection, schedule: Q04DX003 (ip), vehicle: saline with Tween-80 108 % of control | dose: 16.5 mg/kg/injection, schedule: Q04DX003 (ip), vehicle: Klucel (hydroxypropylcellulose) (HPC) 100 % of control | dose: 16.5 mg/kg/injection, schedule: Q04DX003 (ip), vehicle: saline with Tween-80 100 % of control | dose: 25.0 mg/kg/injection, schedule: Q04DX003 (ip), vehicle: Klucel (hydroxypropylcellulose) (HPC) 98 % of control | dose: 25.0 mg/kg/injection, schedule: Q04DX003 (ip), vehicle: saline with Tween-80 108 % of control | dose: 37.5 mg/kg/injection, schedule: Q04DX003 (ip), vehicle: Klucel (hydroxypropylcellulose) (HPC) 97 % of control | dose: 37.5 mg/kg/injection, schedule: Q04DX003 (ip), vehicle: saline with Tween-80 104 % of control

Cc1cc2c(cc1C)C(=O)CCC(=O)N2
inactive: [4] 102 % of control | [5] 97 % of control | [6] 96 % of control

c1cc2n(n1)CCN2
inactive: dose: 12.5 mg/kg/injection, schedule: Q01DX009 (ip), vehicle: saline 104 % of control | dose: 25.0 mg/kg/injection, schedule: Q01DX009 (ip), vehicle: saline 109 % of control | [1] 100 % of control and 104 % of control | dose: 80.0 mg/kg/injection, schedule: Q01DX009 (ip), vehicle: saline 111 % of control | [2] 111 % of control and 120 % of control | dose: 120.0 mg/kg/injection, schedule: Q01DX009 (ip), vehicle: saline 113 % of control | dose: 200.0 mg/kg/injection, schedule: Q01DX009 (ip), vehicle: saline 100 % of control | dose: 225.0 mg/kg/injection, schedule: Q03DX003 (ip), vehicle: saline 111 % of control | dose: 264.0 mg/kg/injection, schedule: Q04DX003 (ip), vehicle: saline 100 % of control | dose: 300.0 mg/kg/injection, schedule: Q03DX003 (ip), vehicle: saline 111 % of control | dose: 375.0 mg/kg/injection, schedule: Q03DX003 (ip), vehicle: saline 124 % of control | [3] 118 % of control

CN1NC(=O)c2ccccc2NC1=S
inactive: [7] 104 % of control | [8] 91 % of control | [9] 101 % of control

CCC1NC(C)(C)CC1=C(C)C (stereo unspecified)
inactive: dose: 6.25 mg/kg/injection, schedule: Q04DX003 (ip), vehicle: saline 105 % of control | [10] 110 % of control | [11] 110 % of control

CCOC1N(c2ccccc2)CN(C2CCCCC2)CC1(C)C (stereo unspecified)
inactive: dose: 6.25 mg/kg/injection, schedule: Q01DX009 (ip), vehicle: saline with Tween-80 100 % of control | dose: 12.5 mg/kg/injection, schedule: Q01DX009 (ip), vehicle: saline with Tween-80 98 % of control | dose: 25.0 mg/kg/injection, schedule: Q01DX009 (ip), vehicle: saline with Tween-80 102 % of control

COP(=O)(OC)C1(C)CO1 (stereo unspecified)
inactive: [7] 87 % of control | [8] 91 % of control | [9] 86 % of control

CC(=O)Nc1nc(Cl)c2ncn(C3CC(OC(=O)c4ccc(C)cc4)C(COC(=O)c4ccc(C)cc4)O3)c2n1 (stereo unspecified)
inactive: dose: 12.5 mg/kg/injection, schedule: Q01DX005 (ip), vehicle: Klucel (hydroxypropylcellulose) (HPC) 97 % of control | dose: 25.0 mg/kg/injection, schedule: Q01DX005 (ip), vehicle: Klucel (hydroxypropylcellulose) (HPC) 90 % of control | dose: 50.0 mg/kg/injection, schedule: Q01DX005 (ip), vehicle: Klucel (hydroxypropylcellulose) (HPC) 97 % of control and 100 % of control | dose: 100.0 mg/kg/injection, schedule: Q01DX005 (ip), vehicle: Klucel (hydroxypropylcellulose) (HPC) 95 % of control and 98 % of control | dose: 200.0 mg/kg/injection, schedule: Q01DX005 (ip), vehicle: Klucel (hydroxypropylcellulose) (HPC) 97 % of control and 103 % of control

C[n+]1cccc(C(=O)O)c1
inactive: dose: 25.0 mg/kg/injection, schedule: Q01DX005 (ip), vehicle: saline 100 % of control | dose: 50.0 mg/kg/injection, schedule: Q01DX005 (ip), vehicle: saline 101 % of control | dose: 100.0 mg/kg/injection, schedule: Q01DX005 (ip), vehicle: saline 99 % of control | dose: 200.0 mg/kg/injection, schedule: Q01DX005 (ip), vehicle: saline 91 % of control

Cn1cnc([N+](=O)[O-])c1[Se]c1ncnc2c1c(C#N)cn2C1OC(CO)C(O)C1O (stereo unspecified)
inactive: [10] 103 % of control | [11] 116 % of control | dose: 50.0 mg/kg/injection, schedule: Q04DX003 (ip), vehicle: saline 116 % of control

Cc1nc(N)[nH]c(=O)c1CCCC#N
inactive: [12] 105 % of control | [13] 108 % of control

O=C1NC(=O)c2cc3ccccc3cc21
inactive: dose: 50.0 mg/kg/injection, schedule: Q01DX005 (ip), vehicle: saline with Tween-80 87 % of control | dose: 100.0 mg/kg/injection, schedule: Q01DX005 (ip), vehicle: saline with Tween-80 87 % of control | dose: 200.0 mg/kg/injection, schedule: Q01DX005 (ip), vehicle: saline with Tween-80 91 % of control

COC1(OC)CC(CCl)OC1(OC)OC (stereo unspecified)
inactive: [14] 103 % of control | [15] 103 % of control | [16] 101 % of control

Cc1c2c(c(C)c3c1C(=O)c1cc4c(cc1C3=O)OCO4)OCO2
inactive: [4] 92 % of control | [5] 99 % of control | [6] 102 % of control

c1ccc2c(SCCSc3c4ccccc4nc4ccccc34)c3ccccc3nc2c1
inactive: [12] 90 % of control | [13] 96 % of control

OC1(C2=COCCO2)CCCCC1
inactive: [14] 105 % of control | [15] 110 % of control | [16] 105 % of control
